pKi: −log10 of the molar value.
Biological target: HPK1 (Homo sapiens (Human), UniProt Q92918)
Test: HPK1 Kinase Binding Assay
Method in brief: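 This is a LanthaScreen tracer-binding format: a tracer 222/Eu-anti-GST antibody mix (18 nM and 4 nM solution) is added to active HPK1 (4 nM solution) with 3-fold, 11-point compound dilutions. Incubation is 1 h at 25 °C in HEPES pH 7.5 buffer before reading, and Ki is determined.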

Chain of HPK1 (Q92918 1-346): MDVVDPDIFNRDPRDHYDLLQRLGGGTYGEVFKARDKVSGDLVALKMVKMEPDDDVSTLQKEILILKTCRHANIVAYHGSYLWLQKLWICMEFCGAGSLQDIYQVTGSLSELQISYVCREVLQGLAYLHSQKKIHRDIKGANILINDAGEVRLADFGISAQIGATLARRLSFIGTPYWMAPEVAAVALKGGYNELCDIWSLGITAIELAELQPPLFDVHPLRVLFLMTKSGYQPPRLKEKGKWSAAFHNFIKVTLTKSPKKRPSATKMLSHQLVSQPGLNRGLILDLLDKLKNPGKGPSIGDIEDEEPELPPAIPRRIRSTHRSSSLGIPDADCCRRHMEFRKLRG

Row | Structure (SMILES) | pKi
1 | Cn1cc(-c2n[nH]c3cnc(-c4c(F)cc(NC(=O)CN5CC6(CCOCC6)C5)cc4F)cc23)cn1 [Example 69, N-(3,5-Difluoro-4-(3-(1-methyl-1H-pyrazol-4-yl)-1H-pyrazolo[3,4-c]pyridin-5-yl)phenyl)-2-(7-oxa-2-azaspiro[3.5]nonan-2-yl)acetamide] | ≥ 7.00
2 | CC(C(=O)Nc1cc(F)c(-c2cc3c(-c4cnn(C)c4)n[nH]c3cn2)c(F)c1)N1CCCC1 (centres unmarked) [Example 70, N-(3,5-Difluoro-4-(3-(1-methyl-1H-pyrazol-4-yl)-1H-pyrazolo[3,4-c]pyridin-5-yl)phenyl)-2-(pyrrolidin-1-yl)propanamide] | ≥ 7.00
3 | COCCNC(=O)Nc1cc(F)c(-c2cc3c(-c4cnn(C)c4)n[nH]c3cn2)c(F)c1 [Example 71, 1-(3,5-Difluoro-4-(3-(1-methyl-1H-pyrazol-4-yl)-1H-pyrazolo[3,4-c]pyridin-5-yl)phenyl)-3-(2-methoxyethyl)urea] | ≥ 7.00
4 | Cn1cc(-c2n[nH]c3cnc(-c4c(F)cc(NC(=O)CN5CCC5)cc4OC(F)F)cc23)cn1 [Example 72, 2-(Azetidin-1-yl)-N-(3-(difluoromethoxy)-5-fluoro-4-(3-(1-methyl-1H-pyrazol-4-yl)-1H-pyrazolo[3,4-c]pyridin-5-yl)phenyl)acetamide] | ≥ 7.00
5 | Cn1cc(-c2n[nH]c3cnc(-c4c(F)cc(NC(=O)CN5CCCC5)cc4Cl)cc23)cn1 [Example 73, N-(3-Chloro-5-fluoro-4-(3-(1-methyl-1H-pyrazol-4-yl)-1H-pyrazolo[3,4-c]pyridin-5-yl)phenyl)-2-(pyrrolidin-1-yl)acetamide] | ≥ 7.00
6 | COc1cc(NC(=O)CN2CCCC2)cc(F)c1-c1cc2c(-c3cnn(C)c3)n[nH]c2cn1 [Example 74, N-(3-Fluoro-5-methoxy-4-(3-(1-methyl-1H-pyrazol-4-yl)-1H-pyrazolo[3,4-c]pyridin-5-yl)phenyl)-2-(pyrrolidin-1-yl)acetamide] | ≥ 7.00
7 | COc1cc(NC(=O)CN2CC(C)(C)C2)cc(F)c1-c1cc2c(-c3cnn(C)c3)n[nH]c2cn1 [Example 75, 2-(3,3-Dimethylazetidin-1-yl)-N-(3-fluoro-5-methoxy-4-(3-(1-methyl-1H-pyrazol-4-yl)-1H-pyrazolo[3,4-c]pyridin-5-yl)phenyl)acetamide] | ≥ 7.00
8 | COc1cc(NC(=O)OC2CCN(C)CC2)cc(F)c1-c1cc2c(-c3cnn(C)c3)n[nH]c2cn1 [Example 76, 1-Methylpiperidin-4-yl 3-fluoro-5-methoxy-4-(3-(1-methyl-1H-pyrazol-4-yl)-1H-pyrazolo[3,4-c]pyridin-5-yl)phenylcarbamate] | ≥ 7.00
9 | Cn1cc(-c2n[nH]c3cnc(-c4c(F)cc(NC(=O)CN5CCC5)c(F)c4F)cc23)cn1 [Example 77, 2-(Azetidin-1-yl)-N-(2,3,5-trifluoro-4-(3-(1-methyl-1H-pyrazol-4-yl)-1H-pyrazolo[3,4-c]pyridin-5-yl)phenyl)acetamide] | ≥ 7.00
10 | Cc1cc(NC(=O)CN(C)C)cc(Cl)c1-c1cc2c(-c3cnn(C)c3)n[nH]c2cn1 [Example 78, N-(3-Chloro-5-methyl-4-(3-(1-methyl-1H-pyrazol-4-yl)-1H-pyrazolo[3,4-c]pyridin-5-yl)phenyl)-2-(dimethylamino)acetamide] | ≥ 7.00
11 | Cc1cc(NC(=O)CN2C[C@H]3CC[C@@H]2C3)ccc1-c1cc2c(-c3cnn(C)c3)n[nH]c2cn1 [Example 79, 2-((1R,4S)-2-Azabicyclo[2.2.1]heptan-2-yl)-N-(3-methyl-4-(3-(1-methyl-1H-pyrazol-4-yl)-1H-pyrazolo[3,4-c]pyridin-5-yl)phenyl)acetamide] | ≥ 7.00
12 | Cc1cc(NC(=O)CN2CCCC2)cc(F)c1-c1cc2c(-c3cnn(C)c3)n[nH]c2cn1 [Example 80, N-(3-Fluoro-5-methyl-4-(3-(1-methyl-1H-pyrazol-4-yl)-1H-pyrazolo[3,4-c]pyridin-5-yl)phenyl)-2-(pyrrolidin-1-yl)acetamide] | ≥ 7.00
13 | Cc1cc(NC(=O)CN(C)C)cc(F)c1-c1cc2c(-c3cnn(C)c3)n[nH]c2cn1 [Example 81, 2-(Dimethylamino)-N-(3-fluoro-5-methyl-4-(3-(1-methyl-1H-pyrazol-4-yl)-1H-pyrazolo[3,4-c]pyridin-5-yl)phenyl)acetamide] | ≥ 7.00
14 | Cc1cc(NC(=O)CN2C3CCC2CC3)cc(F)c1-c1cc2c(-c3cnn(C)c3)n[nH]c2cn1 [Example 82, 2-(7-Azabicyclo[2.2.1]heptan-7-yl)-N-(3-fluoro-5-methyl-4-(3-(1-methyl-1H-pyrazol-4-yl)-1H-pyrazolo[3,4-c]pyridin-5-yl)phenyl)acetamide] | ≥ 7.00
15 | Cc1cc(NC(=O)CN2C[C@H]3CC[C@@H]2C3)cc(F)c1-c1cc2c(-c3cnn(C)c3)n[nH]c2cn1 [Example 83, 2-((1R,4S)-2-Azabicyclo[2.2.1]heptan-2-yl)-N-(3-fluoro-5-methyl-4-(3-(1-methyl-1H-pyrazol-4-yl)-1H-pyrazolo[3,4-c]pyridin-5-yl)phenyl)acetamide] | ≥ 7.00
16 | Cc1cc(NC(=O)CCN(C)C)cc(F)c1-c1cc2c(-c3cnn(C)c3)n[nH]c2cn1 [Example 84, 3-(Dimethylamino)-N-(3-fluoro-5-methyl-4-(3-(1-methyl-1H-pyrazol-4-yl)-1H-pyrazolo[3,4-c]pyridin-5-yl)phenyl)propanamide] | ≥ 7.00
17 | Cc1cc(NC(=O)CC#N)cc(F)c1-c1cc2c(-c3cnn(C)c3)n[nH]c2cn1 [Example 85, 2-Cyano-N-(3-fluoro-5-methyl-4-(3-(1-methyl-1H-pyrazol-4-yl)-1H-pyrazolo[3,4-c]pyridin-5-yl)phenyl)acetamide] | ≥ 7.00
18 | CNCc1cccc(-c2cc3c(-c4cnn(C)c4)n[nH]c3cn2)c1C [Example 86, N-Methyl-1-(2-methyl-3-(3-(1-methyl-1H-pyrazol-4-yl)-1H-pyrazolo[3,4-c]pyridin-5-yl)phenyl)methanamine] | ≥ 7.00
19 | CNCc1ccc(C)c(-c2cc3c(-c4cnn(C)c4)n[nH]c3cn2)c1 [Example 87, N-Methyl-1-(4-methyl-3-(3-(1-methyl-1H-pyrazol-4-yl)-1H-pyrazolo[3,4-c]pyridin-5-yl)phenyl)methanamine] | ≥ 7.00
20 | CNCc1cccc(-c2cc3c(-c4cnn(C)c4)n[nH]c3cn2)c1C(F)(F)F [Example 88, N-Methyl-1-(3-(3-(1-methyl-1H-pyrazol-4-yl)-1H-pyrazolo[3,4-c]pyridin-5-yl)-2-(trifluoromethyl)phenyl)methanamine] | ≥ 7.00
21 | Cn1cc(-c2n[nH]c3cnc(-c4cccc(CN5CCC5)c4C(F)(F)F)cc23)cn1 [Example 89, 5-(3-(Azetidin-1-ylmethyl)-2-(trifluoromethyl)phenyl)-3-(1-methyl-1H-pyrazol-4-yl)-1H-pyrazolo[3,4-c]pyridine] | ≥ 7.00
22 | Cn1cc(-c2n[nH]c3cnc(-c4cccc(CNC5CCOCC5)c4C(F)(F)F)cc23)cn1 [Example 90, N-(3-(3-(1-Methyl-1H-pyrazol-4-yl)-1H-pyrazolo[3,4-c]pyridin-5-yl)-2-(trifluoromethyl)benzyl)tetrahydro-2H-pyran-4-amine] | ≥ 7.00
23 | CC(C)NCc1cccc(-c2cc3c(-c4cnn(C)c4)n[nH]c3cn2)c1C(F)(F)F [Example 91, N-(3-(3-(1-Methyl-1H-pyrazol-4-yl)-1H-pyrazolo[3,4-c]pyridin-5-yl)-2-(trifluoromethyl)benzyl)propan-2-amine] | ≥ 7.00

Source: patent publication US10435405B2, “Pyrazolopyridine compounds and uses thereof” (Incyte Corporation, priority 2016, dated 2019)
